# System: Mycobacterium tuberculosis
# Assay: Antitubercular activity against Mycobacterium tuberculosis H37Rv after 2 weeks
# Assay type: functional
# Conditions: 336 h
row,Compound,MIC
1,COc1cc(/C=C/C=O)cc2ccoc12,35 µg/mL
2,COc1cc(CCCO)cc2ccoc12,50 µg/mL
3,COC(=O)c1cc2c(c(OC)c1)O[C@H](C(C)(C)O)C2,35 µg/mL
4,COc1c2ccccc2nc2occc12 [DICTAMNINE],30 µg/mL
5,CC[C@@H](CO)NCCN[C@@H](CC)CO [ETHAMBUTOL],6.25 µg/mL
6,COc1c2ccoc2nc2c(OC)cccc12 [GAMMA-FAGARINE],30 µg/mL
7,COC(=O)/C=C/c1ccc2c(c1)C[C@@H](C(C)(C)O)O2 [METHYL DEMETHOXYWUTAIENSATE],50 µg/mL
8,CC(C)=CCOc1ccc(C(=O)O)cc1 [VALENCIC ACID],45 µg/mL
9,COc1cc(/C=C/C=O)cc2c1O[C@H](C(C)(C)O)C2 [WUTAIENSAL],30 µg/mL
